Measurements from PMC9667546, “Selective Inhibition of Bruton’s Tyrosine Kinase by a Designed Covalent Ligand Leads to Potent Therapeutic Efficacy in Blood Cancers Relative to Clinically Used Inhibitors” (ACS Pharmacology & Translational Science, 2022).
Where two headings read alike, the source gives them in different places.

Legend:
[1] = test system: Raji cells (BL); test: Cell viability assay (CellTiter-Glo), Raji; format: cell-based; conditions: Homo sapiens, 72 h, n = 3
Protocol: (§1) All cell lines were purchased from ATCC, except for DoHH-2 cells that were obtained from DSMZ. Cells were cultivated in complete DMEM supplemented with 10% (vol/vol) FBS (Gibco) and 1% of penicillin/streptomycin (Gibco). The cells were grown in a humidified atmosphere of 5% CO2 at 37°C, with the medium changed every other day.
(§2) Cells were inoculated at a density of 5000 cells/well. Serially diluted compounds (starting at 50 μM) were added 24 h later. The assay was performed in triplicates. After 72 h of incubation, cellular viability was assessed by CellTiter-Glo (Promega) according to the manufacturer’s instructions. The values were normalized with the vehicle (DMSO), and the IC50 was calculated using GraphPad Prism 8.

[2] = target: T1, BMX (Homo sapiens, UniProt P51813); conditions: first value of 3.5/49 in Table S3; ref SI 20; read-out: IC50, BMX, earlier value of JS25; cited from earlier work
T1 construct: host or cells: HEK296T (so in the source)
T1 sequence (P51813 1-675): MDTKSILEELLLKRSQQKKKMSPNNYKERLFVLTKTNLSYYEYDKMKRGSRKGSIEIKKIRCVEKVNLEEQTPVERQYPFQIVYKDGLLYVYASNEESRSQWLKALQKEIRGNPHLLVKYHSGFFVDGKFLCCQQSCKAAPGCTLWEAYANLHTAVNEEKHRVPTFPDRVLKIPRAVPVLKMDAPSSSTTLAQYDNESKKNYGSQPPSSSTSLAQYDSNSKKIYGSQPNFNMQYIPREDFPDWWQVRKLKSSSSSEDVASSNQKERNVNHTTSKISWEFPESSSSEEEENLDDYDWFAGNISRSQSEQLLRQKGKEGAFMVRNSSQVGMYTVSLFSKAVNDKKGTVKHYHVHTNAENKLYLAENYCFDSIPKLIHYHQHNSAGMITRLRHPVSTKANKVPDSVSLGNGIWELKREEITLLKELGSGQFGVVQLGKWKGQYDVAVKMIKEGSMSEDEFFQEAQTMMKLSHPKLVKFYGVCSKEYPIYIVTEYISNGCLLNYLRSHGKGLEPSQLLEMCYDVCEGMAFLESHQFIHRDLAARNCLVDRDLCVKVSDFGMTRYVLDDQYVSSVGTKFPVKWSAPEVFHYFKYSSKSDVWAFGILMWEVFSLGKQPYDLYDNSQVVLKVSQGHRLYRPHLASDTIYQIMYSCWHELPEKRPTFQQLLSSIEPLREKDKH

[3] = test system: WA-C3CD5+ cells (CLL); test: Cell viability assay (CellTiter-Glo), WA-C3CD5+; format: cell-based; conditions: 72 h, n = 3
[4] = target: T1, BMX; test: NanoBRET in-cell target engagement, BMX; format: binding
Protocol: (§3) In-cell target engagement was performed at Reaction Biology Corporation, using NanoBRET technology. Very briefly, HEK296T cells were transfected and treated in duplicate with JS25 for 1 h of incubation. The compound was diluted 10 times with 3-fold dilution, starting at 1 μM. Curve fits were performed only when the % NanoBret signal at the highest concentration of compounds was less than 55%. The IC50 values were determined using GraphPad Prism 8 ([…]).

[5] = test system: Mo1043 cells (CLL); test: Cell viability assay (CellTiter-Glo), Mo1043; format: cell-based; conditions: 72 h, n = 3
[6] = target: T2, TEC (Homo sapiens, UniProt P42680); test: NanoBRET in-cell target engagement, TEC; format: binding
T2 construct: host or cells: HEK296T (so in the source)
T2 sequence (P42680 1-631): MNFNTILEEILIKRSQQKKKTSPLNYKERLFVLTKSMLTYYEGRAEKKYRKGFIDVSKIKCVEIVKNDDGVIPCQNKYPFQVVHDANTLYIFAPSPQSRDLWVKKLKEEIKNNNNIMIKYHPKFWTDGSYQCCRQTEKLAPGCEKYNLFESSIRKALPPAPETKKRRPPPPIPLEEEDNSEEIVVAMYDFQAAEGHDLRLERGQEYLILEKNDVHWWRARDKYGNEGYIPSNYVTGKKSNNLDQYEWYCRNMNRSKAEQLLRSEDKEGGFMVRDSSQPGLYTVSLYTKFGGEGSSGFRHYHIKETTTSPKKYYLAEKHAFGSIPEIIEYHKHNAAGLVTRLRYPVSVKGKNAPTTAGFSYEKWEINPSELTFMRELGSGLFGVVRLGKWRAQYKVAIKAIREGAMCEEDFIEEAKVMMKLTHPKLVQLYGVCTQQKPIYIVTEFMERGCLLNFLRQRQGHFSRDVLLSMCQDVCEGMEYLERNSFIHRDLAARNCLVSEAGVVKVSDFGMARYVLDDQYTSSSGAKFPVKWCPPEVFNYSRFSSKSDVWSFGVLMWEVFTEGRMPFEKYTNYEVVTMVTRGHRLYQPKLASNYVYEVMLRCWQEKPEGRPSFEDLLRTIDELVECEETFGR
Protocol: as §3

[7] = target: BTK (Homo sapiens, UniProt Q06187); test: BTK inhibition kinetics (ADP-Glo kinase assay); format: biochemical; set-up: purchased Promega Corporation V2941
[8] = target: T3, EGFR (Homo sapiens, UniProt P00533); test: NanoBRET in-cell target engagement, EGFR; format: binding; conditions: HEK296T cells, 1 h incubation, average of duplicates
T3 construct: host or cells: HEK296T (so in the source)
Protocol: as §3

[9] = target: BLK (Homo sapiens, UniProt P51451); test: NanoBRET in-cell target engagement, BLK; format: binding; set-up: host or cells: HEK296T (so in the source)
Protocol: as §3

[10] = target: T4, ERBB2 (Homo sapiens, UniProt P04626); test: NanoBRET in-cell target engagement, ERBB2; format: binding; conditions: HEK296T cells, 1 h incubation, average of duplicates
T4 construct: host or cells: HEK296T (so in the source)
Protocol: as §3

[11] = test system: DoHH-2 cells (DLBCL); test: Cell viability assay (CellTiter-Glo), DoHH-2; format: cell-based; conditions: Homo sapiens, 72 h, n = 3
Protocol: as §1, §2

[12] = HEK296T cells, 1 h incubation, average of duplicates
[13] = BTK preincubated with inhibitor 2–60 min, ATP 50 μM

Sequence of BTK (Q06187 whole entry): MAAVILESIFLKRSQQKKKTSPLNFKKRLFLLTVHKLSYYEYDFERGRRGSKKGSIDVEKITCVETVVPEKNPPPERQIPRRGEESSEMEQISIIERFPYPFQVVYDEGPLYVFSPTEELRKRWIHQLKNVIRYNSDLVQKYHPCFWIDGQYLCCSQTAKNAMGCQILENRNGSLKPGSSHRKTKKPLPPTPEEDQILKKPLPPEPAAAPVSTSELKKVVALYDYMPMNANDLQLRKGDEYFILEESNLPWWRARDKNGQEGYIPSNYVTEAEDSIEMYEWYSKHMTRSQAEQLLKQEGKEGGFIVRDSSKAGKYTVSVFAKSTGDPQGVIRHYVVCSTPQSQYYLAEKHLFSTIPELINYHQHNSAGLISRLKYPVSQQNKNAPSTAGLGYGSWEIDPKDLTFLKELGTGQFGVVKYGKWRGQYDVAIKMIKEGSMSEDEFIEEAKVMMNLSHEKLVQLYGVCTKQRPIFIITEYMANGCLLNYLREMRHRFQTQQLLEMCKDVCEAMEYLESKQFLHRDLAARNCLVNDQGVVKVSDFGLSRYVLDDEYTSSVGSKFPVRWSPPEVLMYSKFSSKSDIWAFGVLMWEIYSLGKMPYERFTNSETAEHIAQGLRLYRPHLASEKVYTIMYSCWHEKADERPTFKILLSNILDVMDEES
Sequence of BLK (P51451 whole entry): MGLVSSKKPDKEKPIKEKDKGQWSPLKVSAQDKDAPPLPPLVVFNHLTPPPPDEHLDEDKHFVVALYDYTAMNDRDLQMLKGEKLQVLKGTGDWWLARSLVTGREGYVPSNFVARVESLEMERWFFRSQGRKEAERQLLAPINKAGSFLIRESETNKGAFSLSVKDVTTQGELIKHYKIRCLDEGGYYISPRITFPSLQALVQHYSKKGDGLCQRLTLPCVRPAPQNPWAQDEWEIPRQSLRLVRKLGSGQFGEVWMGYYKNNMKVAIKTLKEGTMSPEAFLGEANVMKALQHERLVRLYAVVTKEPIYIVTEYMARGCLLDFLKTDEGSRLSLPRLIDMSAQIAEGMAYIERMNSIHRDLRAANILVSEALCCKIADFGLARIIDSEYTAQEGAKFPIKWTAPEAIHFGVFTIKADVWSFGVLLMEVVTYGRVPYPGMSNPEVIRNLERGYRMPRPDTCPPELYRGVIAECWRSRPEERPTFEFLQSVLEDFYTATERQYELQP
T3 sequence (P00533 25-1210): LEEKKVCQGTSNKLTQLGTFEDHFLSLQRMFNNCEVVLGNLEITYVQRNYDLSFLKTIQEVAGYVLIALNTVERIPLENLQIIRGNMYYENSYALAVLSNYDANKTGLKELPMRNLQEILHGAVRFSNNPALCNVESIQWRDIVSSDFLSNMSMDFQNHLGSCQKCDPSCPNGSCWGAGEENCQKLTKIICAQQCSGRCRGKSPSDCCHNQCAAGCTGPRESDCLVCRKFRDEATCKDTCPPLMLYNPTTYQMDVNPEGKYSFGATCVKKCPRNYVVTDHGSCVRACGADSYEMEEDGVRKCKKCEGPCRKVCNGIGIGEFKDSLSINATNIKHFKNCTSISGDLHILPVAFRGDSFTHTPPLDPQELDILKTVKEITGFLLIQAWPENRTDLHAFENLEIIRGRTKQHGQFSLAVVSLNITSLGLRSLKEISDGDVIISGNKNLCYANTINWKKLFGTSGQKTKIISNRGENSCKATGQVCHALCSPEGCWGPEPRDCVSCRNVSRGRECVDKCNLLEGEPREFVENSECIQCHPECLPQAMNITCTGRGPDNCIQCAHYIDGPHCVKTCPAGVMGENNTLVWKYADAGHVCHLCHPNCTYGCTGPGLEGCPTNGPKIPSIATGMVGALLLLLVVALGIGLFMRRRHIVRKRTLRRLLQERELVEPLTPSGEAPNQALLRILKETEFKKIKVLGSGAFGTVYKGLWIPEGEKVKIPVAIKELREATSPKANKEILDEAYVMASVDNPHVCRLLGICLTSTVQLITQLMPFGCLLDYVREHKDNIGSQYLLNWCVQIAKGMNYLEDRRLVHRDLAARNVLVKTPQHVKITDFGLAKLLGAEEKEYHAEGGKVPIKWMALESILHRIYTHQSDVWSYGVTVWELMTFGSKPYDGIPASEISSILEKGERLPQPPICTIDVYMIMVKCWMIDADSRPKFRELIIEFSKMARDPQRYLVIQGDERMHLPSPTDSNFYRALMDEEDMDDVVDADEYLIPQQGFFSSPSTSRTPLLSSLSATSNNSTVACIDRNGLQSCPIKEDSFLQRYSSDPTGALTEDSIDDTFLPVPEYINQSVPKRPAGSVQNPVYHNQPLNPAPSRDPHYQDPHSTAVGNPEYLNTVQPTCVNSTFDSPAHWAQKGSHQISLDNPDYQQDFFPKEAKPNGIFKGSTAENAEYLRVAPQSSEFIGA
T4 sequence (P04626 23-1255): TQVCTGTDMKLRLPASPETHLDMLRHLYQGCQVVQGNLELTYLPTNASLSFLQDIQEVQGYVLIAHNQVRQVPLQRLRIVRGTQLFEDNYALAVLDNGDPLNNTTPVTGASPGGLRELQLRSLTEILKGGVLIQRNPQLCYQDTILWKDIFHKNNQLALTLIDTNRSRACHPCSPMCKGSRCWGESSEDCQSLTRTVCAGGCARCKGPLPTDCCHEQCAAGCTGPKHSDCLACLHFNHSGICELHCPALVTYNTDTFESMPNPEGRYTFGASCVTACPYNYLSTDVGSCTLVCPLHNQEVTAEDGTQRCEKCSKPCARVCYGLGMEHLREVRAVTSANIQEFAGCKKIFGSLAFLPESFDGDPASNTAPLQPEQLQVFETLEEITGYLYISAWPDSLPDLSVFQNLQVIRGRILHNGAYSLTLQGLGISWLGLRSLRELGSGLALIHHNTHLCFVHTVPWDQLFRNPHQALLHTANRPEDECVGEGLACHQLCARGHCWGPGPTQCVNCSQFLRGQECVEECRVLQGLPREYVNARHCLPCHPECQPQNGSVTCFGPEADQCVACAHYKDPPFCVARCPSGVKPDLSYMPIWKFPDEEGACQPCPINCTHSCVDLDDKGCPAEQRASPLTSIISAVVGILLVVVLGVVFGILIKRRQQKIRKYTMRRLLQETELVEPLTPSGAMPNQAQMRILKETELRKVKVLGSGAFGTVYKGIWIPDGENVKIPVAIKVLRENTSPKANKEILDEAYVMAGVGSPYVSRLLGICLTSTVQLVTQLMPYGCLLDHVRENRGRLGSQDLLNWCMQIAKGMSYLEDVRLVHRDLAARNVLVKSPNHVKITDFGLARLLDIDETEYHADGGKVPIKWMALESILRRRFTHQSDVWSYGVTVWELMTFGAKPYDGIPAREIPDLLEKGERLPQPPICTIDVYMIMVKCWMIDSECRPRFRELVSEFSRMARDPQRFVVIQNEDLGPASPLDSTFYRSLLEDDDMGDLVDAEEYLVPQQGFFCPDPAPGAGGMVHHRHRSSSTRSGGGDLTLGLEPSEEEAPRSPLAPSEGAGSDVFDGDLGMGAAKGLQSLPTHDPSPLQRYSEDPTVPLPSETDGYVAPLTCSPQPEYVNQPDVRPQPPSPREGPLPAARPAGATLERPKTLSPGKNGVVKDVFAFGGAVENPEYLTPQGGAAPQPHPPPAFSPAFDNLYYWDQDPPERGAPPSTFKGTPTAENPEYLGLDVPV

## C=CC(=O)Nc1cc(C)cc(-n2c(=O)ccc3cnc4ccc(-c5ccc(NS(C)(=O)=O)cc5)cc4c32)c1 [JS25]
[1]
  IC50: 2300 nM
[2]
  IC50: 3.5 nM
[3]
  IC50: 3.5 µM
[4]
  selectivity toward BTK relative to BMX: ~2 fold
[4]; [12]
  IC50: 49 nM
[4]; IC50 kinase/IC50 BTK
  selectivity (kinase/BTK), BMX: 1.7
[5]
  IC50: 3.4 ± 0.01 µM
[6]
  selectivity for BTK relative to TEC: ~8 fold
[6]; [12]
  IC50: 220 nM
[6]; IC50 kinase/IC50 BTK
  selectivity (kinase/BTK), TEC: 7.7
[7]
  increase in the rate of protein inactivation compared to ibrutinib, acalabrutinib and BMX-IN-1: 8–200 fold
  increased rate of inactivation (kinact/KI) relative to BMX-IN-1: ~18 fold
  increased rate of inactivation (kinact/KI) relative to acalabrutinib: ~200 fold
  increased rate of inactivation (kinact/KI) relative to ibrutinib: approximately 8 fold
  kinact of JS25, fold faster compared with ibrutinib, acalabrutinib and BMX-IN-1: 10 fold
[7]; [13]
  Ki: 0.77 ± 0.06 nM
  kinact: 0.00668 s⁻¹
  kinact/KI: 8.72e+06 ± 1.02e+06 M⁻¹ s⁻¹
[8]
  IC50: > 3 µM
[9]
  selectivity for BTK relative to BLK: 100 fold
[9]; HEK296T cells, 1 h incubation, average of duplicates, read-out: IC50 (M), BLK
  IC50: 2.6e-06 M
[9]; NanoBRET value as given in Table S3, read-out: IC50, BLK
  IC50: ~3e-06 M
[10]
  IC50: > 3 µM
[11]
  IC50: 520 ± 20 nM
